Measurements as given in patent publication US8546389B2 (priority 2010, dated 2013).
Read-outs that look alike come from different tables or passages of the source.

How the values were obtained:
[1] = tested on: genotype 1b (Con 1) subgenomic replicon cell line; assay: HCV replicon assay, genotype 1b (Renilla luciferase); format: cell-based, HCV genotype 1b (Con 1); conditions: genotype 1b replicon
How it was run: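 Subgenomic replicon cells expressing Renilla luciferase (1b Con1; 1a and 2a lines by the same method) seeded at 7000 cells/well (5000 for 2a) without G418, exposed to 3-fold compound dilutions for 72 h at 37 °C. Luciferase activity measured; EC50 by non-linear regression.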

[2] = target: 1b (BK) NS5bΔ21 (Hepatitis C virus genotype 1b (isolate BK) (HCV), UniProt P26663); assay: HCV polymerase inhibition assay, genotype 1b; format: biochemical, HCV genotype 1b (BK)
How it was run: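 Both genotype 1b and 3a enzymes assayed identically: ^33P-GTP incorporation on poly(rC) template, GTP at Km, 50 nM NS5bΔ21, pH 7.5 Tris with 5 mM MgCl2 and MnCl2, 1 h reaction ended by cold EDTA. Filter-bound label counted; IC50 fitted by non-linear regression across three-fold dilution series.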

[3] = target: genotype 3a (VRL-69) NS5bΔ21 polymerase (Hepatitis C virus genotype 3a, UniProt Q81258); assay: HCV polymerase inhibition assay, genotype 3a; format: biochemical, HCV genotype 3a (VRL-69)
Description: HCV polymerase reactions were carried out using a modified method of Howe et al., Antimicrobial Agents and Chemotherapy 2004 48(12): 4813-4821. Reactions contained a final concentration of, 0.5% DMSO, 50 nM, 1b (BK) NS5bΔ21, 20 mM Tris-HCl pH 7.5, 5 mM MgCl2, 5 mM MnCl2, 3 mM DTT, 0.05% BSA, 0.2 U/μL RNasin, 10 μg/mL Poly(rC) template, GTP (at Km) and 0.05 μCi/μL ^33P-GTP in a total reaction volume of 50 μL. Compounds were tested in a three fold dilution series, for example starting from 50 μM. Reactions were initiated with the addition of GTP and terminated after 1 hour with 50 μL ice cold 0.2 M EDTA. Terminated reactions were transferred to DEAE 96-well filter plates, unincorporated nucleotides washed from the filters and 50 μL scintillation fluid added prior to reading on a scintillation counter. Similarly, a genotype 3a (VRL-69) NS5bΔ21 polymerase enzyme assay was conducted using essentially the same method.
The compound concentration that reduced ^33P-GTP incorporation by 50% (IC50) was calculated using non-linear regression.

[4] = tested on: subgenomic genotype 2a replicon cell line; assay: HCV replicon assay, genotype 2a; format: cell-based, HCV genotype 2a
Description: (§1) A genotype 1b (Con 1) subgenomic replicon cell line based on Blight et al., Science 2000 290: 1972-1974, modified to express a Renilla luciferase reporter gene was used to assess antiviral activity of test compounds. Cell cultures were maintained in a sub-confluent state in DMEM with glutamine, 10% heat-inactivated foetal bovine serum (FBS) and G418 (Geneticin®).
(§2) For assay, cells were seeded at a density of 7000 cells/well into 96 well tissue culture trays in culture media lacking G418. Compounds were tested in a three fold dilution series, for example starting from 50 uM. After 72 hours incubation at 37° C. and 5% CO2, Renilla luciferase activity was quantified via the Promega Renilla Luciferase or Renilla-Glo™ Luciferase Assay Systems (Promega corporation. The same method was employed for replicon assays using subgenomic genotype 1a and 2a replicon cell lines with a seeding cell density of 5000 cells/well for the 2a cell lines.
(§3) The compound concentration that reduced luciferase activity by 50% (EC50) was calculated using non-linear regression.

[5] = tested on: subgenomic genotype 1a replicon cell line; assay: HCV replicon assay, genotype 1a; format: cell-based, HCV genotype 1a
Description: as §1, §2, §3

[6] = Hepatitis C virus, 72 hours, luciferase, read-out: genotype 1b EC50 (range class)
[7] = Hepatitis C virus, read-out: Replicon 1b EC50
[8] = 1b (BK) NS5bΔ21, 33P-GTP incorporation, read-out: 1b polymerase IC50 (range class)
[9] = genotype 1b, read-out: 1b NS5b polymerase IC50
[10] = genotype 3a, read-out: 3a NS5b polymerase IC50

Chain of genotype 3a (VRL-69) NS5bΔ21 polymerase (Q81258 whole entry, looked up, stated change not applied): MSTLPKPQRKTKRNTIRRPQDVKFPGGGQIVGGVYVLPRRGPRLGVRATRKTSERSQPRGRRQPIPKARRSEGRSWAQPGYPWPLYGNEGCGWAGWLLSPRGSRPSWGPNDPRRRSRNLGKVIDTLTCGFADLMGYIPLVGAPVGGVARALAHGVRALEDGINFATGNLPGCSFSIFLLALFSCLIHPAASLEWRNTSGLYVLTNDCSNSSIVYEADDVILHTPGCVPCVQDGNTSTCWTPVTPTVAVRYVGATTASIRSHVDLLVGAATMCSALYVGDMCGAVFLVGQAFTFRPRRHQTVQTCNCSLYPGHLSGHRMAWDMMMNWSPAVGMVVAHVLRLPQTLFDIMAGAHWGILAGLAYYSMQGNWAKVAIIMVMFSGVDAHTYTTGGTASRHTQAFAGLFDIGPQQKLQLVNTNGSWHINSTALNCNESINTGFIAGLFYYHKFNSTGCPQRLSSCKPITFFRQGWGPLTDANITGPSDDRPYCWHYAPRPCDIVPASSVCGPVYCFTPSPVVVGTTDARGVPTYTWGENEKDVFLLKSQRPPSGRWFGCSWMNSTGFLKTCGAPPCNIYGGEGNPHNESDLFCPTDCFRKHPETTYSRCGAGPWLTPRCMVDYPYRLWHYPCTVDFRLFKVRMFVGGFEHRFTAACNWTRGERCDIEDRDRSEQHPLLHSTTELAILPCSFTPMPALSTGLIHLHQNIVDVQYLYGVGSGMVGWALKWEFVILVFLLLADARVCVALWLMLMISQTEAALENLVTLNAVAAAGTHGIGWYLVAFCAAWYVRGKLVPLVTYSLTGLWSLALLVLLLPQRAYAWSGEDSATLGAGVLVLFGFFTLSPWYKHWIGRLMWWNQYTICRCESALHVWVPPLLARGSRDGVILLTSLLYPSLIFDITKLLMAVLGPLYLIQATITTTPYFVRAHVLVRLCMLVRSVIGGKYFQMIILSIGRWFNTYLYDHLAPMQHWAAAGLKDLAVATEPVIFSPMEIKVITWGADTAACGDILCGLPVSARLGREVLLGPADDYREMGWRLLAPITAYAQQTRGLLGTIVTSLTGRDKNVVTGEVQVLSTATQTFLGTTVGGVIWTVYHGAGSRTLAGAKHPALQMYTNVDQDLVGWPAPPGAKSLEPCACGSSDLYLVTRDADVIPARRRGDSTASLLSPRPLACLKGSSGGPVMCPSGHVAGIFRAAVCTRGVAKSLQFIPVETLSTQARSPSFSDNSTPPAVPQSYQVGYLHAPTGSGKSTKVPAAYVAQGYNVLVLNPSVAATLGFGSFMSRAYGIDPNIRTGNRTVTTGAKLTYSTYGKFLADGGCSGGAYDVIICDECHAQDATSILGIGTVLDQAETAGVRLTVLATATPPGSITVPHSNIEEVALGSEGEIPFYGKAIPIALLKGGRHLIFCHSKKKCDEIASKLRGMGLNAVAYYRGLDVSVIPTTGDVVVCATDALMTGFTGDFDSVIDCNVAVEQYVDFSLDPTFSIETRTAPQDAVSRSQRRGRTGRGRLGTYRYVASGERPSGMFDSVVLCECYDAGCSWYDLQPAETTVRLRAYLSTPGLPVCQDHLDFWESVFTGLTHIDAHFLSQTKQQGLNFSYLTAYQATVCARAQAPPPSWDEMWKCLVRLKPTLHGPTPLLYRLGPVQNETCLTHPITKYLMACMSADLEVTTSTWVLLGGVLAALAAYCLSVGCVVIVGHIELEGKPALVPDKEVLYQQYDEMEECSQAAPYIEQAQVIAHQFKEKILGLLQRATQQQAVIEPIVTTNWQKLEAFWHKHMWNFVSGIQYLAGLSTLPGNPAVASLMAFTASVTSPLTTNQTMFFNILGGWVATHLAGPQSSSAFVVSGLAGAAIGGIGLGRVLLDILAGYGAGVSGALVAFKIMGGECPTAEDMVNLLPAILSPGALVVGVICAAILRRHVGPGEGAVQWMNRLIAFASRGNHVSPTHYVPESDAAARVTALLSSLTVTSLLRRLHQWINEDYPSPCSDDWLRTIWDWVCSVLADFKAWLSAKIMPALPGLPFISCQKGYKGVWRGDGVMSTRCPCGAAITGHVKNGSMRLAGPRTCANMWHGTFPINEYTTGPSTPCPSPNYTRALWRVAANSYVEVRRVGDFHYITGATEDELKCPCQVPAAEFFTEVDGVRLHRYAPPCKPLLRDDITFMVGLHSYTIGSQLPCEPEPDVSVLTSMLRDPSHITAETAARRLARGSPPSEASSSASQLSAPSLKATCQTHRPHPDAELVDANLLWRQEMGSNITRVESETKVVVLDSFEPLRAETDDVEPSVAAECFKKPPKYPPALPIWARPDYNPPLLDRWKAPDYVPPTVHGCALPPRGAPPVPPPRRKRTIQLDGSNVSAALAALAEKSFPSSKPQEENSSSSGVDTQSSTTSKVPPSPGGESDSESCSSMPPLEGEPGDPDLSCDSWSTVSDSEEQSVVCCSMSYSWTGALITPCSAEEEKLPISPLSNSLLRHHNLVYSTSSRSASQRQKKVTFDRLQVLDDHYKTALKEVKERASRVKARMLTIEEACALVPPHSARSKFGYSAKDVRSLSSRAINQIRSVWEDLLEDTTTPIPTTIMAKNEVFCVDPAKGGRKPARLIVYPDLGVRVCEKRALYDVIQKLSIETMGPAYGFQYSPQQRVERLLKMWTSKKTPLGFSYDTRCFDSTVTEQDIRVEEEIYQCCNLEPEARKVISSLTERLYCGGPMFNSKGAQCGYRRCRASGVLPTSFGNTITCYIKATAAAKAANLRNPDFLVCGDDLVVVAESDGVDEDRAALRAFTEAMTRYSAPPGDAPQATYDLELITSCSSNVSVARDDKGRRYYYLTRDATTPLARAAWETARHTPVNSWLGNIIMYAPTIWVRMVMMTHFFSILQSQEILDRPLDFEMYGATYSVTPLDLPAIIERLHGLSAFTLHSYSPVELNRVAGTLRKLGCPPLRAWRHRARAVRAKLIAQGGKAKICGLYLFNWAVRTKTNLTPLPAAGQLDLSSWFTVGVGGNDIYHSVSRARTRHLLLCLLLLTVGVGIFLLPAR
Chain of 1b (BK) NS5bΔ21 (P26663 2420-2989): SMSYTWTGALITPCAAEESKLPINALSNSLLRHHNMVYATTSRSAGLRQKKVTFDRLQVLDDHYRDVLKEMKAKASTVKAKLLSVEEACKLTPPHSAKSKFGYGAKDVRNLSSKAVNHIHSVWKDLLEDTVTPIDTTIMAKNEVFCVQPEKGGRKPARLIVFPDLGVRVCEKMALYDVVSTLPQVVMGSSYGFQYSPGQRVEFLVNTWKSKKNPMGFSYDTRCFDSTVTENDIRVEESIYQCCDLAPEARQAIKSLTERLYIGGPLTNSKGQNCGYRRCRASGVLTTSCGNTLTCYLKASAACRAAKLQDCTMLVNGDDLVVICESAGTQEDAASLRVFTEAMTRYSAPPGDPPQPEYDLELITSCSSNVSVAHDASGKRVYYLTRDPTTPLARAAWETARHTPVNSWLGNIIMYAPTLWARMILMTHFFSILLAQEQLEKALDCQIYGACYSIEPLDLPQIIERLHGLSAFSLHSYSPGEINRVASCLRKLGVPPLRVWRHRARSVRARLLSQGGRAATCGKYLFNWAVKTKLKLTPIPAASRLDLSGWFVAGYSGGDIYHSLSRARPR

SMILES | EC50 [1, 6] [nM] | IC50 [2, 8] [nM] | IC50 [2, 9] [nM] | IC50 [3, 10] [nM] | further results
CNC(=O)c1c2cc(C3CC3)c(N(CCCO)S(C)(=O)=O)cc2nn1-c1ccc(Br)cc1 [Compound 4, 2-(4-bromophenyl)-5-cyclopropyl-6-[(3-hydroxypropyl)(methylsulfonyl)amino]-N-methyl-2H-indazole-3-carboxamide] | < 990 | < 990 | 170 | 10 | EC50 [1, 7]: 90 nM; EC50 ([4]; Hepatitis C virus): 940 nM; EC50 ([5]; Hepatitis C virus): 210 nM
CNC(=O)c1c2cc(C3CC3)c(N(CCCO)S(C)(=O)=O)cc2nn1-c1ccc(Nc2ccccc2F)cc1 [Compound 5, 5-cyclopropyl-2-{4-[(2-fluorophenyl)amino]phenyl}-6-[(3-hydroxypropyl)(methylsulfonyl)amino]-N-methyl-2H-indazole-3-carboxamide] | < 990 | < 990 | 70 | 40 | EC50 [1, 7]: 130 nM; EC50 ([4]; Hepatitis C virus): 320 nM; EC50 ([5]; Hepatitis C virus): 50 nM
CNC(=O)c1c2cc(C3CC3)c(N(CCCO)S(C)(=O)=O)cc2nn1-c1ccc(Nc2ccc(F)cc2)cc1 [Compound 21] | < 990 | < 990 | 40 | 40 | EC50 [1, 7]: 460 nM; EC50 ([4]; Hepatitis C virus): 340 nM; EC50 ([5]; Hepatitis C virus): 290 nM
CCN(c1cc2nn(-c3ccc(Nc4ccc(F)cc4)cc3)c(C(=O)NC)c2cc1C1CC1)S(C)(=O)=O [Compound 22] | < 990 | < 990 | 110 | 20 | EC50 [1, 7]: 70 nM; EC50 ([4]; Hepatitis C virus): 340 nM; EC50 ([5]; Hepatitis C virus): 380 nM
CCN(c1cc2nn(-c3ccc(Oc4ccccc4F)cc3)c(C(=O)NC)c2cc1C1CC1)S(C)(=O)=O [Compound 28] | < 990 | < 990 | 120 | 20 | EC50 [1, 7]: 100 nM; EC50 ([4]; Hepatitis C virus): 200 nM; EC50 ([5]; Hepatitis C virus): 740 nM
CNC(=O)c1c2cc(C3CC3)c(N(CCCO)S(C)(=O)=O)cc2nn1-c1ccc(Cl)cc1 [Compound 54, 2-(4-Chlorophenyl-1)-5-cyclopropyl-6-[3-hydroxypropyl(methylsulfonyl)amino]-N-methyl-indazole-3-carboxamide] | – | – | 360 | 20 | EC50 ([1]; read-out: Replicon 1b EC50): 100 nM; EC50 [4]: 1030 nM; EC50 [5]: 300 nM
CNC(=O)c1c2cc(C3CC3)c(N(CCCNC(C)=O)S(C)(=O)=O)cc2nn1-c1ccc(Br)cc1 [Compound 59, 6-{[3-(Acetylamino)propyl](methylsulfonyl)amino}-2-(4-bromophenyl)-5-cyclopropyl-N-methyl-2H-indazole-3-carboxamide] | < 990 | < 990 | 260 | 50 | EC50 [1, 7]: 670 nM; EC50 ([4]; Hepatitis C virus): 1430 nM; EC50 ([5]; Hepatitis C virus): 300 nM
CNC(=O)c1c2cc(C3CC3)c(N(CCCNC(=O)C3CCC3)S(C)(=O)=O)cc2nn1-c1ccc(Br)cc1 [Compound 62] | – | – | 180 | 50 | EC50 ([1]; read-out: Replicon 1b EC50): 170 nM; EC50 [4]: 2860 nM; EC50 [5]: 80 nM
CNC(=O)c1c2cc(C3CC3)c(N(CCCNC(=O)CCC(=O)OC)S(C)(=O)=O)cc2nn1-c1ccc(Br)cc1 [Compound 66, Methyl 4-[(3-{[2-(4-bromophenyl)-5-cyclopropyl-3-(methylcarbamoyl)-2H-indazol-6-yl](methylsulfonyl)amino}propyl)amino]-4-oxobutanoate] | < 990 | < 990 | 320 | – | EC50 [1, 7]: 120 nM; IC50 [3]: 80 nM; EC50 ([4]; Hepatitis C virus): 360 nM; EC50 ([5]; Hepatitis C virus): 20 nM
CNC(=O)c1c2cc(C3CC3)c(N(CCC3COC(C)(C)OC3)S(C)(=O)=O)cc2nn1-c1ccc(Br)cc1 [Compound 95] | – | – | 70 | 40 | EC50 ([1]; read-out: Replicon 1b EC50): 50 nM; EC50 [4]: 180 nM; EC50 [5]: 70 nM
C=CCN(c1cc2nn(-c3ccc(Br)cc3)c(C(=O)NC)c2cc1C1CC1)S(C)(=O)=O [Compound 98] | – | – | 100 | 30 | EC50 ([1]; read-out: Replicon 1b EC50): 80 nM; EC50 [4]: 460 nM; EC50 [5]: 160 nM
CNC(=O)c1c2cc(C3CC3)c(N(CCCNC(=O)c3ncoc3C)S(C)(=O)=O)cc2nn1-c1ccc(Br)cc1 [Compound 174] | < 990 | < 990 | – | – | EC50 [1, 7]: 110 nM; EC50 ([4]; Hepatitis C virus): 1730 nM; EC50 ([5]; Hepatitis C virus): 60 nM
CCN(c1cc2nn(-c3ccc(Cl)c(F)c3)c(C(=O)NC)c2cc1C1CC1)S(C)(=O)=O [Compound 239] | < 990 | < 990 | – | – | –
CNC(=O)c1c2cc(C3CC3)c(N(CCF)S(C)(=O)=O)cc2nn1-c1ccc(Br)cc1 [Compound 241] | < 990 | < 990 | – | – | –
CNC(=O)c1c2cc(C3CC3)c(N(CCCNC(=O)C(C)C)S(C)(=O)=O)cc2nn1-c1ccc(Cl)cc1 [Compound 242] | < 990 | < 990 | – | – | –
CNC(=O)c1c2cc(C3CC3)c(N(CCCOC)S(C)(=O)=O)cc2nn1-c1ccc(Cl)cc1 [Compound 243] | < 990 | < 990 | – | – | –
CCN(c1cc2nn(-c3ccc(C)c(F)c3)c(C(=O)NC)c2cc1C1CC1)S(C)(=O)=O [Compound 244] | < 990 | < 990 | – | – | –
CNC(=O)c1c2cc(C3CC3)c(N(CCC(F)(F)F)S(C)(=O)=O)cc2nn1-c1ccc(Cl)cc1 [Compound 245] | < 990 | < 990 | – | – | –
CNC(=O)c1c2cc(C3CC3)c(N(CC3CC3)S(C)(=O)=O)cc2nn1-c1ccc(Cl)cc1 [Compound 246] | < 990 | < 990 | – | – | –
CNC(=O)c1c2cc(C3CC3)c(N(CCF)S(C)(=O)=O)cc2nn1-c1ccc(Cl)cc1 [Compound 247] | < 990 | < 990 | – | – | –
CNC(=O)c1c2cc(C3CC3)c(N(CC3CCOCC3)S(C)(=O)=O)cc2nn1-c1ccc(Cl)cc1 [Compound 249] | < 990 | < 990 | – | – | –
CNC(=O)c1c2cc(C3CC3)c(N(CCC3CCOCC3)S(C)(=O)=O)cc2nn1-c1ccc(Cl)cc1 [Compound 250] | < 990 | < 990 | – | – | –
CNC(=O)c1c2cc(C3CC3)c(N(CCCNC(=O)[C@H]3CCCC[C@H]3C(=O)O)S(C)(=O)=O)cc2nn1-c1ccc(Br)cc1 [Compound 251] | < 990 | < 990 | – | – | –
CNC(=O)c1c2cc(C3CC3)c(N(CC3CCOC3)S(C)(=O)=O)cc2nn1-c1ccc(Cl)cc1 (centres unmarked) [Compound 252] | < 990 | < 990 | – | – | –
CNC(=O)c1c2cc(C3CC3)c(N(CC(F)F)S(C)(=O)=O)cc2nn1-c1ccc(Br)cc1 [Compound 253] | < 990 | < 990 | – | – | –
CNC(=O)c1c2cc(C3CC3)c(N(CC(F)F)S(C)(=O)=O)cc2nn1-c1ccc(Cl)cc1 [Compound 254] | < 990 | < 990 | – | – | –
CCN(c1cc2nn(-c3ccc(NC)nc3)c(C(=O)NC)c2cc1C1CC1)S(C)(=O)=O [Compound 255] | < 990 | < 990 | – | – | –
CNC(=O)c1c2cc(C3CC3)c(N(CCC3CCOC3)S(C)(=O)=O)cc2nn1-c1ccc(Br)cc1 (centres unmarked) [Compound 256] | < 990 | < 990 | – | – | –
CNC(=O)c1c2cc(C3CC3)c(N(CCC3CCOC3)S(C)(=O)=O)cc2nn1-c1ccc(Cl)cc1 (centres unmarked) [Compound 257] | < 990 | 1000 to 9990 | – | – | –
CCN(c1cc2nn(-c3ccc(Br)cc3)c(C(=O)NC)c2cc1C1CC1)S(=O)(=O)C(F)(F)F [Compound 258] | 1000 to 9990 | 1000 to 9990 | – | – | –
